Data from article PMC8280112, “Substrate reduction therapy for Krabbe disease and metachromatic leukodystrophy using a novel ceramide galactosyltransferase inhibitor” (Scientific Reports, 2021).

How the values were obtained:
[1] = target: T1, rhARSA (Homo sapiens, UniProt P15289); assay: Arylsulfatase A assay; type: biochemical; settings: read-out: ARSA IC50
T1 construct: purchased R&D systems
T1 sequence (P15289 19-507): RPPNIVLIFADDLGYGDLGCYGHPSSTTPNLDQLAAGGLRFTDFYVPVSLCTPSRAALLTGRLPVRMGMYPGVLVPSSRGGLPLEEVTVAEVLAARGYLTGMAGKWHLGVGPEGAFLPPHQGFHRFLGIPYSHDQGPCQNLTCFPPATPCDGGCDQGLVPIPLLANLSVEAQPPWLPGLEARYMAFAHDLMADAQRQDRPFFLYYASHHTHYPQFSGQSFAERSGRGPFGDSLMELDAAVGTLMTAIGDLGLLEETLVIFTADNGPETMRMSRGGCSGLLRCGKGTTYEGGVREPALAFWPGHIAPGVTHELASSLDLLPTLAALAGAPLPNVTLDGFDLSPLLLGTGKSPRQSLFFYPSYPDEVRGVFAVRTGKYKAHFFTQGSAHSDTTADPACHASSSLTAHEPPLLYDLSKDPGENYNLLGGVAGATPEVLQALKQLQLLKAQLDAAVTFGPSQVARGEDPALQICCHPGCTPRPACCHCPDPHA
Method: The ARSA assay was modified from a previously reported method. The reaction mixture contained 40 ng of rhARSA (R&D systems), various concentrations of inhibitor, and 6.2 µM N-octadecanoyl-d3-sulfatide substrate in reaction buffer (0.08 M sodium acetate at pH 4.5, 2.08 g/L sodium taurodeoxycholate, 33 mM MnCl2, 0.4% DMSO) and was incubated for 16 h at 37 °C. The reaction was terminated with equal volume MeOH:ethyl acetate (EA). N-octadecanoyl-d35-psychosine (Matreya) was added as the IS, together with 400 µL EA and 200 µL H2O. After centrifugation, 200 µL of the EA layer was dried under a stream of N2 and resuspended in 100 µL MeOH before quantifying the N-octadecanoyl-d3-galactosylceramide product using a reported UPLC–MS/MS method.

[2] = system: wild-type mice; assay: PND15 wild-type mice tolerability study: blood chemistry and hematology; type: in vivo, mouse; settings: PND15-PND70, Avg
Method: Maximum obtainable terminal blood collection was taken via cardiac puncture and split. 200 µL into clot-activating tubes for serum processing and the following chemistry panel: AST, ALT, CKMB and electrolytes. 220 µL stored on wet ice and used for CBC.
Animals were euthanized with CO2 followed by cardiac puncture. Blood was collected via cardiac puncture and split for blood chemistry and hematology.

[3] = 2.3 mg/kg IP three times per week
[4] = 5.4 mg/kg IP three times per week

**Q.** With `C[C@H]1N(c2ccc(Br)cc2)C(=O)N(c2ccc(Br)cc2)C1(O)c1cccc(OC(F)(F)F)c1` (some centres unmarked) [S202] as the compound, how does the IC50 [1] read?
**A.** > 50 µM

**Q.** What about the “#BASO” value [2, 3] of the same compound?
**A.** 0.02 10^3cells/µL

**Q.** What about the “#EOS” value [2, 3] of the same compound?
**A.** 0.14 10^3cells/µL

**Q.** And the “#LUC” value [2, 3]?
**A.** 0.11 10^3cells/µL

**Q.** What about the “#LYMPH” value [2, 3] of the same compound?
**A.** 4.3 10^3cells/µL

**Q.** And the “#MONO” value [2, 3]?
**A.** 0.12 10^3cells/µL

**Q.** What about the “#NEUT” value [2, 3] of the same compound?
**A.** 0.8 10^3cells/µL

**Q.** And the “#RETIC” value [2, 3]?
**A.** 291 10^9cells/L

**Q.** And the “%BASO” value [2, 3]?
**A.** 0.4%

**Q.** What about the “%EOS” value [2, 3] of the same compound?
**A.** 2.4%

**Q.** And the “%LUC” value [2, 3]?
**A.** 2%

**Q.** And the “%LYMPH” value [2, 3]?
**A.** 78.8%

**Q.** And the “%MONO” value [2, 3]?
**A.** 2.3%

**Q.** What about the “%NEUT” value [2, 3] of the same compound?
**A.** 14.3%

**Q.** What about the “%RETIC” value [2, 3] of the same compound?
**A.** 2.9%

**Q.** What about the ALT [2, 3] of the same compound?
**A.** 257.2 IU/L

**Q.** What about the AST [2, 3] of the same compound?
**A.** 283.5 IU/L

**Q.** What about the CH [2, 3] of the same compound?
**A.** 13.3 pg

**Q.** What about the CHCM [2, 3] of the same compound?
**A.** 27.5 g/dL

**Q.** And the CHR [2, 3]?
**A.** 14.6 pg

**Q.** And the CHm [2, 3]?
**A.** 14 pg

**Q.** And the CKMB [2, 3]?
**A.** 250.5 U/L

**Q.** And the CL [2, 3]?
**A.** 109.4 mmol/L

**Q.** And the HCT [2, 3]?
**A.** 47.9%

**Q.** What about the HDW [2, 3] of the same compound?
**A.** 1.9 g/dL

**Q.** And the HGB [2, 3]?
**A.** 15.3 g/dL

**Q.** And the HGBCell [2, 3]?
**A.** 13.2 g/dL

**Q.** What about the K [2, 3] of the same compound?
**A.** 10.5 mmol/L

**Q.** And the MCH [2, 3]?
**A.** 15.4 pg

**Q.** What about the MCHC [2, 3] of the same compound?
**A.** 31.9 g/dL

**Q.** And the MCV [2, 3]?
**A.** 48.2 fL

**Q.** What about the MPM [2, 3] of the same compound?
**A.** 1.3 pg

**Q.** And the MPV [2, 3]?
**A.** 5.4 fL

**Q.** What about the NA [2, 3] of the same compound?
**A.** 148 mmol/L

**Q.** And the PDW [2, 3]?
**A.** 37.1%

**Q.** What about the PLT [2, 3] of the same compound?
**A.** 1.02e+06 µL⁻¹

**Q.** What about the RBC [2, 3] of the same compound?
**A.** 9.9e+06 µL⁻¹

**Q.** What about the RDW [2, 3] of the same compound?
**A.** 12.2%

**Q.** And the WBC [2, 3]?
**A.** 5500 µL⁻¹

**Q.** And the “#BASO” value [2, 4]?
**A.** 0.013 10^3cells/µL

**Q.** And the “#EOS” value [2, 4]?
**A.** 0.4 10^3cells/µL

**Q.** And the “#LUC” value [2, 4]?
**A.** 0.047 10^3cells/µL

**Q.** And the “#LYMPH” value [2, 4]?
**A.** 3.8 10^3cells/µL

**Q.** What about the “#MONO” value [2, 4] of the same compound?
**A.** 0.08 10^3cells/µL

**Q.** What about the “#NEUT” value [2, 4] of the same compound?
**A.** 0.55 10^3cells/µL

**Q.** And the “#RETIC” value [2, 4]?
**A.** 285 10^9cells/L

**Q.** And the “%BASO” value [2, 4]?
**A.** 0.35%

**Q.** What about the “%EOS” value [2, 4] of the same compound?
**A.** 8.2%

**Q.** What about the “%LUC” value [2, 4] of the same compound?
**A.** 0.9%

**Q.** What about the “%LYMPH” value [2, 4] of the same compound?
**A.** 77.6%

**Q.** And the “%MONO” value [2, 4]?
**A.** 1.6%

**Q.** What about the “%NEUT” value [2, 4] of the same compound?
**A.** 11.4%

**Q.** What about the “%RETIC” value [2, 4] of the same compound?
**A.** 2.7%

**Q.** What about the ALT [2, 4] of the same compound?
**A.** 99.5 IU/L

**Q.** What about the AST [2, 4] of the same compound?
**A.** 132.8 IU/L

**Q.** What about the CH [2, 4] of the same compound?
**A.** 13.1 pg

**Q.** What about the CHCM [2, 4] of the same compound?
**A.** 27.3 g/dL

**Q.** What about the CHR [2, 4] of the same compound?
**A.** 14.6 pg

**Q.** What about the CHm [2, 4] of the same compound?
**A.** 13.8 pg

**Q.** What about the CKMB [2, 4] of the same compound?
**A.** 126.4 U/L

**Q.** And the CL [2, 4]?
**A.** 111.3 mmol/L

**Q.** What about the HCT [2, 4] of the same compound?
**A.** 50.1%

**Q.** And the HDW [2, 4]?
**A.** 1.93 g/dL

**Q.** And the HGB [2, 4]?
**A.** 15.9 g/dL

**Q.** What about the HGBCell [2, 4] of the same compound?
**A.** 13.7 g/dL

**Q.** And the K [2, 4]?
**A.** 9.6 mmol/L

**Q.** And the MCH [2, 4]?
**A.** 15.3 pg

**Q.** And the MCHC [2, 4]?
**A.** 31.8 g/dL

**Q.** And the MCV [2, 4]?
**A.** 48.1 fL

**Q.** What about the MPM [2, 4] of the same compound?
**A.** 1.3 pg

**Q.** And the MPV [2, 4]?
**A.** 5.82 fL

**Q.** What about the NA [2, 4] of the same compound?
**A.** 150.9 mmol/L

**Q.** And the PDW [2, 4]?
**A.** 46.63%

**Q.** And the PLT [2, 4]?
**A.** 737200 µL⁻¹

**Q.** And the RBC [2, 4]?
**A.** 1.04e+07 µL⁻¹

**Q.** And the RDW [2, 4]?
**A.** 11.8%

**Q.** What about the WBC [2, 4] of the same compound?
**A.** 4900 µL⁻¹
